Where two headings read alike, the source gives them in different places. *1 amine or outer side, *2 acyl side, *3 side chain or, on linkers, in order; H or OH if unused. Where a SMILES comes first, the peptide text is derived from it. Bridges are numbered along the chain shown (N, C = ends). [ ]: non-standard residue; d: D form. The star is where a group is joined. X5 = NC(=O)[C@H](CCCCNC(=O)CN1CCN(CC(=O)O)CCN(CC(=O)O)CCN(CC(=O)O)CC1)NC(=O)CCC(=O)NCCCOCCOCCOCCCN*; X11 = O=C(CN1CCN2CCN3CCN(CC1)CC(=O)[O][In]([O]C(=O)C2)[O]C(=O)C3)NCCCOCCOCCOCCCN*; X3 = O=C(O)CN1CCN(CC(=O)O)CCN(CC(=O)NCCCOCCOCCOCCCN*)CCN(CC(=O)O)CC1; Maleimide(3,4-diyl) = O=C1NC(=O)C([*:2])=C1[*:1]; Trp(5-Cl) = N[C@@H](Cc1c[nH]c2ccc(Cl)cc12)C(=O)O; Trp(6-Cl) = N[C@@H](Cc1c[nH]c2cc(Cl)ccc12)C(=O)O; Pyridine(2,6-diCH2) = c1cc(C[*:1])nc(C[*:2])c1; NMeW = CN[C@@H](Cc1c[nH]c2ccccc12)C(=O)O; 1Nal = N[C@@H](Cc1cccc2ccccc12)C(=O)O; mXylylene = c1cc(C[*:1])cc(C[*:2])c1; Glutaryl = O=C(CCCC(=O)[*:2])[*:1]; pXylylene = c1cc(C[*:2])ccc1C[*:1]; X7 = c1cc(CSCCN[*:2])cc(C[*:1])c1; Hyp = O=C(O)[C@@H]1C[C@@H](O)CN1; NMeE = CN[C@@H](CCC(=O)O)C(=O)O; Suc = O=C(CCC(=O)[*:2])[*:1]; Pip = O=C(O)[C@@H]1CCCCN1; hCys = N[C@@H](CCS)C(=O)O; hSer = N[C@@H](CCO)C(=O)O; Thp = NC1(C(=O)O)CCOCC1; Aib = CC(C)(N)C(=O)O
Target: T1, GIPR (CHO-K1-hGIPR cells) (Homo sapiens, UniProt P48546)
T1 construct: host or cells: CHO-K1
T1 sequence (P48546 22-466): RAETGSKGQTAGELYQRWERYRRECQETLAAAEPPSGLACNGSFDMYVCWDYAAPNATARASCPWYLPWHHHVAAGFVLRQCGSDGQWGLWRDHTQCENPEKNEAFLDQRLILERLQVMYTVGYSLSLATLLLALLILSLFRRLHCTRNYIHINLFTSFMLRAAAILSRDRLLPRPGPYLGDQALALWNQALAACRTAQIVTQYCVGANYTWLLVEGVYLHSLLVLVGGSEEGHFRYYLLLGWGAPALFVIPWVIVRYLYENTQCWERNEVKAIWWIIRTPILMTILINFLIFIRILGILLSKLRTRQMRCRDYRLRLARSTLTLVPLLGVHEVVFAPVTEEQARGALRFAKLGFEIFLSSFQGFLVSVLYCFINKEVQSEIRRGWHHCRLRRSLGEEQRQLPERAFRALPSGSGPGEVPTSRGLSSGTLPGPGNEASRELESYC
Assay: FACS binding assay
Details: read-out: pIC50 Category (converted)
Outline: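 Peptide binding read by flow cytometry as APC-channel median fluorescence, fitted with a four-parameter logistic to yield EC50 or IC50. Cells were hGIPR-transfected CHO-K1 in PBS with 1% FCS, detected with 1 μg/mL APC-streptavidin, 30 min on ice.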

[1] = competition with 20 nM GIP-057, 4° C., 1 hour
[2] = competition with 20 nM GIP-057, 4° C. for 1 hour

Row | IC50 [1] | IC50 [2] | SMILES
1 | < 10 nM |  | CC[C@H](C)[C@@H]1NC(=O)[C@H](CC(C)C)NC(=O)C2(CCOCC2)NC(=O)[C@@H](NC(=O)[C@@H](CC(C)C)NC(=O)[C@H](CCC(=O)O)NC(=O)[C@@H]2C[C@@H](O)CN2C(=O)[C@H](Cc2c[nH]c3ccc(Cl)cc23)NC(=O)[C@H](Cc2c[nH]c3ccccc23)NC(=O)CCCC(=O)O)CSCc2cccc(n2)CSC[C@@H](C(N)=O)NC1=O [GIP-214, HO-Glutar-Trp-5Clw-Hyp-Glu-leu-[Cys(2Lut)-Thp-Leu-Ile-Cys]-NH2] (Glutaryl-W[Trp(5-Cl)][Hyp]E[dL]C[Thp]LIC-NH2; linker 6-10 via Pyridine(2,6-diCH2))
2 |  | > 1000 nM | CC[C@H](C)[C@@H]1NC(=O)[C@H](CC(C)C)NC(=O)C(C)(C)NC(=O)[C@@H](NC(=O)[C@H](CC(C)C)NC(=O)[C@H](CCC(=O)O)NC(=O)[C@@H]2CCCN2C(=O)[C@H](Cc2c[nH]c3ccccc23)N(C)C(=O)[C@H](Cc2c[nH]c3ccccc23)NC(=O)[C@H](CC(=O)O)NC(C)=O)CSCc2cccc(c2)CSC[C@@H](C(=O)NCCCOCCOCCOCCCNC(=O)CCC(=O)N[C@@H](CCCCNC(=O)CN2CCN(CC(=O)O)CCN(CC(=O)O)CCN(CC(=O)O)CC2)C(N)=O)NC1=O [GIP-289, Ac-Asp-Trp-Nmw-Pro-Glu-Leu-[Cys(3MeBn)-Aib-Leu-Ile-Cys]-Ttds-Lys(DOTA)-NH2] (Ac-DW[NMeW]PELC[Aib]LIC-X5; linker 7-11 via mXylylene)
3 | < 10 nM |  | CC[C@H](C)[C@@H]1NC(=O)[C@H](CC(C)C)NC(=O)C2(CCOCC2)NC(=O)[C@@H](NC(=O)[C@H](CC(C)C)NC(=O)[C@H](CCC(=O)O)N(C)C(=O)[C@@H]2C[C@@H](O)CN2C(=O)[C@H](Cc2c[nH]c3ccc(Cl)cc23)NC(=O)[C@H](Cc2c[nH]c3ccccc23)NC(=O)[C@H](CC(=O)O)NC(C)=O)CSCc2cccc(n2)CSC[C@@H](C(N)=O)NC1=O [GIP-217, Ac-Asp-Trp-5Clw-Hyp-Nme-Leu-[Cys(2Lut)-Thp-Leu-Ile-Cys]-NH2] (Ac-DW[Trp(5-Cl)][Hyp][NMeE]LC[Thp]LIC-NH2; linker 7-11 via Pyridine(2,6-diCH2))
4 |  | < 10 nM | CC[C@H](C)[C@@H]1NC(=O)[C@H](CC(C)C)NC(=O)C2(CCOCC2)NC(=O)[C@@H](NC(=O)[C@@H](CC(C)C)NC(=O)[C@H](C)NC(=O)[C@@H]2C[C@@H](O)CN2C(=O)[C@H](Cc2c[nH]c3ccc(Cl)cc23)NC(=O)[C@H](Cc2c[nH]c3ccccc23)NC(=O)[C@H](CC(=O)O)NC(C)=O)CSCc2cccc(n2)CSC[C@@H](C(N)=O)NC1=O [GIP-386, Ac-Asp-Trp-5Clw-Hyp-Ala-leu-[Cys(2Lut)-Thp-Leu-Ile-Cys]-NH2] (Ac-DW[Trp(5-Cl)][Hyp]A[dL]C[Thp]LIC-NH2; linker 7-11 via Pyridine(2,6-diCH2))
5 |  | 100 to 794 nM | CC[C@H](C)[C@@H]1NC(=O)[C@H](CC(C)C)NC(=O)[C@@H](C)NC(=O)[C@@H](NC(=O)[C@H](CC(C)C)NC(=O)[C@H](CCC(=O)O)NC(=O)[C@@H]2CCCN2C(=O)[C@H](Cc2c[nH]c3ccccc23)NC(=O)[C@H](Cc2c[nH]c3ccccc23)NC(=O)[C@H](CC(=O)O)NC(=O)CCC(=O)NCCCOCCOCCOCCCNC(=O)CN2CCN(CC(=O)O)CCN(CC(=O)O)CCN(CC(=O)O)CC2)CSCc2cccc(c2)CSC[C@@H](C(N)=O)NC1=O [GIP-271, DOTA-Ttds-asp-Trp-Trp-Pro-Glu-Leu-[Cys(3MeBn)-ala-Leu-Ile-Cys]-NH2] ({X3-Suc}-DWWPELC[dA]LIC-NH2; linker 7-11 via mXylylene)
6 |  | < 10 nM | CC[C@H](C)[C@@H]1NC(=O)[C@H](CC(C)C)NC(=O)C2(CCOCC2)NC(=O)[C@@H](NC(=O)[C@@H](CC(C)C)NC(=O)[C@H](CCC(=O)O)NC(=O)[C@@H]2C[C@@H](O)CN2C(=O)[C@H](Cc2c[nH]c3ccc(Cl)cc23)NC(=O)[C@H](Cc2c[nH]c3ccccc23)NC(=O)[C@H](CC(=O)O)NC(C)=O)CSC2=C(SCC[C@@H](C(N)=O)NC1=O)C(=O)NC2=O [GIP-361, Ac-Asp-Trp-5Clw-Hyp-Glu-leu-[Cys(mli)-Thp-Leu-Ile-Hcy]-NH2] (Ac-DW[Trp(5-Cl)][Hyp]E[dL]C[Thp]LI[hCys]-NH2; linker 7-11 via Maleimide(3,4-diyl))
7 |  | > 1000 nM | CC[C@H](C)[C@@H]1NC(=O)C(C)(C)NC(=O)[C@H](CCC(=O)O)NC(=O)[C@@H](NC(=O)[C@H](CC(C)C)NC(=O)[C@H](Cc2c[nH]c3ccccc23)NC(=O)[C@H](Cc2c[nH]c3ccc(Cl)cc23)NC(=O)[C@@H]2CCCN2C(=O)[C@H](CC(=O)O)NC(=O)[C@@H](CC(C)C)NC(=O)CCC(=O)NCCCOCCOCCOCCCNC(=O)CN2CCN(CC(=O)O)CCN(CC(=O)O)CCN(CC(=O)O)CC2)CSCc2cccc(c2)CSCCNC1=O [GIP-305, DOTA-Ttds-leu-Asp-Pro-5Clw-Trp-Leu-[Cys(3MeBn)-Glu-Aib-Ile-AET]] ({X3-Suc}-[dL]DP[Trp(5-Cl)]WLCE[Aib]I; linker 7-C via X7)
8 |  | > 1000 nM | CC[C@H](C)[C@@H]1NC(=O)[C@H](CC(C)C)NC(=O)[C@H](C)NC(=O)[C@@H](NC(=O)[C@H](CC(C)C)NC(=O)[C@H](CCC(=O)O)NC(=O)[C@@H]2CCCN2C(=O)[C@H](Cc2c[nH]c3ccccc23)NC(=O)[C@H](Cc2c[nH]c3ccccc23)NC(=O)[C@H](CC(=O)O)NC(=O)[C@H](Cc2ccc(O)cc2)NC(=O)[C@@H](N)CCSC)CSCc2ccc(cc2)CSC[C@@H](C(N)=O)NC1=O [GIP-331] (H-MYDWWPELCALIC-NH2; linker 9-13 via pXylylene)
9 |  | 10 to 79.4 nM | CC[C@H](C)[C@@H]1NC(=O)[C@H](CC(C)C)NC(=O)[C@H](C)NC(=O)[C@@H](NC(=O)[C@H](CC(C)C)NC(=O)[C@H](CCC(=O)O)NC(=O)[C@@H]2CCCN2C(=O)[C@H](Cc2c[nH]c3ccccc23)NC(=O)[C@H](Cc2c[nH]c3ccccc23)NC(=O)[C@H](CC(=O)O)NC(=O)[C@H](C)NC(=O)[C@@H](N)CCSC)CSCc2cccc(c2)CSC[C@@H](C(N)=O)NC1=O [GIP-249] (H-MADWWPELCALIC-NH2; linker 9-13 via mXylylene)
10 |  | 10 to 79.4 nM | CC[C@H](C)[C@@H]1NC(=O)[C@H](CC(C)C)NC(=O)C(C)(C)NC(=O)[C@@H](NC(=O)[C@H](CC(C)C)NC(=O)[C@H](CCC(=O)O)NC(=O)[C@@H]2CCCCN2C(=O)[C@H](Cc2cccc3ccccc23)NC(=O)[C@H](Cc2c[nH]c3ccccc23)NC(=O)[C@H](CC(=O)O)NC(C)=O)CSCc2cccc(c2)CSC[C@@H](C(N)=O)NC1=O [GIP-253, Ac-Asp-Trp-1Ni-Pip-Glu-Leu-[Cys(3MeBn)-Aib-Leu-Ile-Cys]-NH2] (Ac-DW[1Nal][Pip]ELC[Aib]LIC-NH2; linker 7-11 via mXylylene)
11 | < 10 nM |  | CC[C@H](C)[C@@H]1NC(=O)[C@H](CC(C)C)NC(=O)C2(CCOCC2)NC(=O)[C@@H](NC(=O)[C@@H](CC(C)C)NC(=O)[C@H](CCC(=O)O)NC(=O)[C@@H]2C[C@@H](O)CN2C(=O)[C@H](Cc2c[nH]c3ccc(Cl)cc23)NC(=O)[C@H](Cc2c[nH]c3ccccc23)NC(=O)[C@H](CCO)NC(C)=O)CSCc2cccc(n2)CSC[C@@H](C(N)=O)NC1=O [GIP-195, Ac-Hse-Trp-5Clw-Hyp-Glu-leu-[Cys(2Lut)-Thp-Leu-Ile-Cys]-NH2] (Ac-[hSer]W[Trp(5-Cl)][Hyp]E[dL]C[Thp]LIC-NH2; linker 7-11 via Pyridine(2,6-diCH2))
12 |  | 100 to 794 nM | CC[C@H](C)[C@@H]1NC(=O)[C@H](CC(C)C)NC(=O)C(C)(C)NC(=O)[C@@H](NC(=O)[C@@H](CC(C)C)NC(=O)[C@H](CCC(=O)O)NC(=O)[C@@H]2CCCN2C(=O)[C@H](Cc2c[nH]c3cc(Cl)ccc23)NC(=O)[C@H](Cc2c[nH]c3ccccc23)NC(=O)[C@H](CC(=O)O)NC(C)=O)CSCc2cccc(c2)CSC[C@@H](C(=O)NCCCOCCOCCOCCCNC(=O)CCC(=O)N[C@@H](CCCCNC(=O)CN2CCN(CC(=O)O)CCN(CC(=O)O)CCN(CC(=O)O)CC2)C(N)=O)NC1=O [GIP-282, Ac-Asp-Trp-6Clw-Pro-Glu-leu-[Cys(3MeBn)-Aib-Leu-Ile-Cys]-Ttds-Lys(DOTA)-NH2] (Ac-DW[Trp(6-Cl)]PE[dL]C[Aib]LIC-X5; linker 7-11 via mXylylene)
13 | < 10 nM |  | CC[C@H](C)[C@@H]1NC(=O)[C@H](CC(C)C)NC(=O)C2(CCOCC2)NC(=O)[C@@H](NC(=O)[C@@H](CC(C)C)NC(=O)[C@H](CCC(=O)O)NC(=O)[C@@H]2C[C@@H](O)CN2C(=O)[C@H](Cc2c[nH]c3ccc(Cl)cc23)NC(=O)[C@H](Cc2c[nH]c3ccccc23)NC(=O)[C@H](CC(=O)O)NC(C)=O)CCSCc2cccc(n2)CSC[C@@H](C(N)=O)NC1=O [GIP-200, Ac-Asp-Trp-5Clw-Hyp-Glu-leu-[Hcy(2Lut)-Thp-Leu-Ile-Cys]-NH2] (Ac-DW[Trp(5-Cl)][Hyp]E[dL][hCys][Thp]LIC-NH2; linker 7-11 via Pyridine(2,6-diCH2))

Row | SMILES | IC50 [1] | IC50 [2]
14 | CC[C@H](C)[C@@H]1NC(=O)[C@H](CC(C)C)NC(=O)C(C)(C)NC(=O)[C@@H](NC(=O)[C@@H](CC(C)C)NC(=O)[C@H](CCC(=O)O)NC(=O)[C@@H]2CCCN2C(=O)[C@H](Cc2c[nH]c3ccc(Cl)cc23)NC(=O)[C@H](Cc2c[nH]c3ccccc23)NC(=O)[C@H](CC(=O)O)NC(=O)CCC(=O)NCCCOCCOCCOCCCNC(=O)CN2CCN3CCN4CCN(CC2)CC(=O)[O][In]([O]C(=O)C3)[O]C(=O)C4)CSCc2cccc(c2)CSCCNC1=O [GIP-148, InDOTA-Ttds-Asp-Trp-5Clw-Pro-Glu-leu-[Cys(3MeBn)-Aib-Leu-Ile-AET]] ({X11-Suc}-DW[Trp(5-Cl)]PE[dL]C[Aib]LI; linker 7-C via X7) | < 10 nM | 
